Assay results as given in patent publication US10660967B2, “Curcumin conjugates and methods of use thereof” (priority 2016, dated 2020).
Like-named read-outs stand apart in the source and are kept apart here.

Experiments:
[1] = tested on: gastric mucosa; experiment: Ulcerogenic liability (ulcer index); format: in vivo, albino mice; conditions: orally, three successive days, 10 mg/kg indomethacin mol equivalent; for Number of animals with ulcer: 6 animals per group; for Ulcer index: sum of the three values
In short: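 Albino mice were fasted 18 h before dosing, and controls got saline with a few drops of Tween 80. Gastric mucosa was checked under a 10× lens for lesions and erosions. The ulcer index combines percentage incidence divided by 10, mean ulcers per stomach and mean severity.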

[2] = tested on: PHA-stimulated splenocytes; experiment: Proliferative response of PHA-stimulated splenocytes (MTT assay); format: cell-based; conditions: PHA 5 μg/ml, 72 hr; compounds at 5 μM (method says 10 μM); ratio of O.D. versus vehicle control
In short: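 Readout was MTT absorbance (570 nm, reference 690 nm) after 72 h culture at 37° C. Splenocytes at 1×10^6 cells/well received test compound (10 μM final) alone or plus PHA 5 μg/ml as T-cell mitogen. Values are OD ratios of compound over vehicle control (stimulation index).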

[3] = tested on: lipopolysaccharide-stimulated peritoneal macrophages; experiment: Production of nitric oxide by lipopolysaccharide-stimulated peritoneal macrophages (Greiss reagent); format: cell-based; design: Potency (%): % inhibition of nitric oxide production relative to lipopolysaccharide-stimulated macrophages: concentration or dose not given beside the values; conditions: LPS-stimulated peritoneal macrophages; for Nitric oxide (nitrite) concentration, μM (average ± SD): 24 h, nitrite by Greiss reagent
In short: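 NO output was quantified as accumulated nitrite, reacting supernatant with Greiss reagent (sulfanilamide/α-naphthylamine) and reading at 532 nm. Beforehand, cells had been incubated 24 h at 37° C. in nitrite-free, 0.1% BSA medium with 0.5–10 ng/ml LPS, with or without catecholamines at […].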

[4] = tested on: Salmonella typhi ATCC19430; experiment: Antimicrobial MIC, agar dilution; format: cell-based; conditions: Salmonella enterica, read-out: Minimum inhibitory concentration (MIC)
[5] = tested on: HCT116 (colon) carcinoma cell line; experiment: Anti-tumor properties, MTT; format: cell-based; conditions: Homo sapiens, HCT-116; read-out: IC50 (μM) HCT116 (colon)
In short: (§1)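 Cells seeded at 10×10^3 per well for 24 h, then exposed to compound in serum-free medium (final up to 100 μM, 0.5% DMSO vehicle) for 72 h in triplicate. Viability by MTT reduction (4 h, SDS solubilised), absorbance 595 nm/ref 620 nm; IC50 from survival curves.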

[6] = tested on: HepG2 (hepatocellular) carcinoma cell line; experiment: Anti-tumor properties, MTT; format: cell-based; conditions: Homo sapiens, HepG2; read-out: IC50 (μM) HepG2 (liver)
In short: as §1

[7] = tested on: MCF7 (breast) carcinoma cell line; experiment: Anti-tumor properties, MTT; format: cell-based; conditions: Homo sapiens, MCF7; read-out: IC50 (μM) MCF7 (breast)
In short: as §1

[8] = tested on: A-549 (lung) carcinoma cell line; experiment: Anti-tumor properties, MTT; format: cell-based; conditions: Homo sapiens, A549
[9] = tested on: PC3 (prostate) carcinoma cell line; experiment: Anti-tumor properties, MTT; format: cell-based; conditions: Homo sapiens
[10] = tested on: Staphylococcus aureus ATCC25923; experiment: Antimicrobial MIC, agar dilution
[11] = tested on: Streptococcus pyogenes ATCC19615; experiment: Antimicrobial MIC, agar dilution
[12] = tested on: Pseudomonas aeruginosa ATCC27853; experiment: Antimicrobial MIC, agar dilution
[13] = tested on: Candida albicans (local isolate); experiment: Antimicrobial MIC, agar dilution; conditions: Candida albicans, read-out: Minimum inhibitory concentration (MIC)
[14] = ATCC25923, 18 h, read-out: Minimum inhibitory concentration (MIC)
[15] = ATCC25923, read-out: Minimum inhibitory concentration (MIC)
[16] = ATCC19615, 18 h, read-out: Minimum inhibitory concentration (MIC)
[17] = ATCC19615, read-out: Minimum inhibitory concentration (MIC)
[18] = ATCC27853, 18 h, read-out: Minimum inhibitory concentration (MIC)
[19] = ATCC27853, read-out: Minimum inhibitory concentration (MIC)

| SMILES | % Incidence of ulcer divided by 10 [1] | Average of ulcer number [1] | Stimulation Index (average ± SD) [2] | Potency (%): % inhibition of nitric oxide production relative to lipopolysaccharide-stimulated macrophages [3] | Nitric oxide (nitrite) concentration, μM (average ± SD) [3] | MIC ([4]; 18 h) | MIC [4] | IC50 [5] | IC50 [6] | IC50 [7] | IC50 [8] | IC50 [9] | MIC [10, 14] | MIC [10, 15] | MIC [11, 16] | MIC [11, 17] | MIC [12, 18] | MIC [12, 19] | MIC ([13]; 18 h) | MIC [13] | other results |
| --- | --- | --- | --- | --- | --- | --- | --- | --- | --- | --- | --- | --- | --- | --- | --- | --- | --- | --- | --- | --- | --- |
| COc1cc(/C=C/C(=O)CC(=O)/C=C/c2ccc(OC(=O)[C@H](CCSC)NC(=O)OC(C)(C)C)c(OC)c2)ccc1OC(=O)[C@H](CCSC)NC(=O)OC(C)(C)C [Boc-L-Met-Cur, ((1E,6E)-3,5-dioxohepta-1,6-diene-1,7-diyl)bis(2-methoxy-4,1-phenylene) (2S,2′S)-bis(2-((tert-butoxycarbonyl)amino)-4-(methylthio)butanoate)] | 0 | 0 | 1.37 ± 0.10 | 40.84% | 16.16 ± 0.64 µM | 2 µg/mL | 2.41 µM | > 100 µM | > 100 µM | 36.3 µM | > 100 µM | > 100 µM | 2 µg/mL | 2.41 µM | 2 µg/mL | 2.41 µM | 1 µg/mL | 1.2 µM | 1 µg/mL | 1.2 µM | Average severity of ulcer [1]: 0; Number of animals with ulcer [1]: 0/6; Ulcer index [1]: 0 |
| COc1cc(/C=C/C(=O)CC(=O)/C=C/c2ccc(OC(=O)[C@@H](C)N)c(OC)c2)ccc1OC(=O)[C@@H](C)N.Cl.Cl [HCl-D-Ala-Cur, (2R,2′R)-1,1′-((((1E,6E)-3,5-dioxohepta-1,6-diene-1,7-diyl)bis(2-methoxy-4,1-phenylene))bis(oxy))bis(1-oxopropan-2-aminium) chloride] | 0 | 0 | 1.35 ± 0.07 | 41.26% | 16.04 ± 0.46 µM | 0.25 µg/mL | 0.428 µM | 39.2 µM | 34.3 µM | 10.4 µM | 30.9 µM | 30.7 µM | 0.125 µg/mL | 0.214 µM | 0.25 µg/mL | 0.428 µM | 1 µg/mL | 1.71 µM | 0.125 µg/mL | 0.214 µM | Average severity of ulcer [1]: 0; Number of animals with ulcer [1]: 0/6; Ulcer index [1]: 0 |
| COc1cc(/C=C/C(=O)CC(=O)/C=C/c2ccc(OC(=O)CN)c(OC)c2)ccc1OC(=O)CN.Cl.Cl [HCl-Gly-Cur, 2,2′-((((1E,6E)-3,5-dioxohepta-1,6-diene-1,7-diyl)bis(2-methoxy-4,1-phenylene))bis(oxy))bis(2-oxoethan-1-aminium) chloride] | 0 | 0 | 0.99 ± 0.16 | 49.98% | 13.66 ± 1.05 µM | 0.25 µg/mL | 0.45 µM | 36.2 µM | 39.8 µM | 9.15 µM | 18.9 µM | 38.7 µM | 0.5 µg/mL | 0.9 µM | 0.25 µg/mL | 0.45 µM | 1 µg/mL | 1.8 µM | 1 µg/mL | 1.8 µM | Average severity of ulcer [1]: 0; Number of animals with ulcer [1]: 0/6; Ulcer index [1]: 0 |
| CC[C@H](C)[C@H](N)C(=O)Oc1ccc(/C=C/C(=O)CC(=O)/C=C/c2ccc(OC(=O)[C@@H](N)[C@@H](C)CC)c(OC)c2)cc1OC.Cl.Cl [HCl-L-Ile-Cur, (2S,2′S,3S,3′S)-1,1′-((((1E,6E)-3,5-dioxohepta-1,6-diene-1,7-diyl)bis(2-methoxy-4,1-phenylene))bis(oxy))bis(3-methyl-1-oxopentan-2-aminium) chloride] |  |  | 1.59 ± 0.17 | 35.45% | 17.63 ± 1.14 µM | 0.125 µg/mL | 0.187 µM | 36.7 µM | 38.9 µM | 10.2 µM | 20.9 µM | 34.4 µM | 0.25 µg/mL | 0.374 µM | 0.5 µg/mL | 0.749 µM | 0.25 µg/mL | 0.374 µM | 0.125 µg/mL | 0.187 µM |  |
| COc1cc(/C=C/C(=O)CC(=O)/C=C/c2ccc(OC(=O)[C@@H](N)CCSC)c(OC)c2)ccc1OC(=O)[C@@H](N)CCSC.Cl.Cl [HCl-L-Met-Cur, (2S,2′S)-1,1′-((((1E,6E)-3,5-dioxohepta-1,6-diene-1,7-diyl)bis(2-methoxy-4,1-phenylene))bis(oxy))bis(4-(methylthio)-1-oxobutan-2-aminium) chloride] | 0 | 0 | 1.49 ± 0.06 | 37.94% | 16.95 ± 0.40 µM | 0.125 µg/mL | 0.178 µM | 61.9 µM | 39.8 µM | 11.3 µM | 32.8 µM | 42.6 µM | 0.25 µg/mL | 0.355 µM | 0.5 µg/mL | 0.711 µM | 0.5 µg/mL | 0.711 µM | 0.5 µg/mL | 0.711 µM | Average severity of ulcer [1]: 0; Number of animals with ulcer [1]: 0/6; Ulcer index [1]: 0 |
| COc1cc(/C=C/C(=O)CC(=O)/C=C/c2ccc(OC(=O)[C@@H](N)Cc3ccccc3)c(OC)c2)ccc1OC(=O)[C@@H](N)Cc1ccccc1.Cl.Cl [HCl-L-Phe-Cur, (2S,2′S)-1,1′-((((1E,6E)-3,5-dioxohepta-1,6-diene-1,7-diyl)bis(2-methoxy-4,1-phenylene))bis(oxy))bis(1-oxo-3-phenylpropan-2-aminium) chloride] |  |  | 1.41 ± 0.31 | 39.74% | 16.46 ± 2.05 µM | 0.125 µg/mL | 0.17 µM | 65.6 µM | 56.2 µM | 11.5 µM | 33.5 µM | 74.4 µM | 0.25 µg/mL | 0.34 µM | 0.5 µg/mL | 0.68 µM | 0.5 µg/mL | 0.68 µM | 0.5 µg/mL | 0.68 µM |  |
| COc1cc(/C=C/C(=O)CC(=O)/C=C/c2ccc(OC(=O)[C@@H](N)C(C)C)c(OC)c2)ccc1OC(=O)[C@@H](N)C(C)C.Cl.Cl [HCl-L-Val-Cur, (2S,2′S)-1,1′-((((1E,6E)-3,5-dioxohepta-1,6-diene-1,7-diyl)bis(2-methoxy-4,1-phenylene))bis(oxy))bis(3-methyl-1-oxobutan-2-aminium) chloride] |  |  | 2.05 ± 0.15 | 24.37% | 20.65 ± 0.99 µM | 0.125 µg/mL | 0.195 µM | 66.5 µM | 39.1 µM | 10.4 µM | 20.4 µM | 34.6 µM | 0.25 µg/mL | 0.391 µM | 0.125 µg/mL | 0.195 µM | 0.25 µg/mL | 0.391 µM | 0.125 µg/mL | 0.195 µM |  |
